According to PubChem BioAssay (NCI):
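Assay format: 96-well plates, 48-hour exposure. TGI marks complete inhibition of growth.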

Columns and labels:
Experiment in all cases: NCI tumour cell line growth inhibition, 48 h
[1] = test system: SK-MEL-28 melanoma
[2] = test system: LOX IMVI melanoma
[3] = test system: A549 NSCLC
[4] = test system: SW-620 colon
[5] = test system: KM12 colon
[6] = test system: NCI-H226 lung
[7] = test system: NCI-H23 lung
[8] = test system: RXF 393 renal
[9] = test system: MALME-3M melanoma
[10] = test system: SK-MEL-2 melanoma
[11] = test system: SF-295 CNS
[12] = test system: K-562 leukemia
[13] = test system: 786-0 renal
[14] = test system: SNB-19 CNS
[15] = test system: CCRF-CEM leukemia
[16] = test system: SK-OV-3 ovarian
[17] = test system: TK-10 renal
[18] = test system: CAKI-1 renal
[19] = test system: ACHN renal
[20] = test system: U251 CNS
[21] = test system: OVCAR-3 ovarian
[22] = test system: HT29 colon
[23] = test system: OVCAR-8 ovarian
[24] = test system: HCT-116 colon
[25] = test system: SNB-78 CNS
[26] = test system: HOP-62 NSCLC
[27] = test system: OVCAR-5 ovarian
[28] = test system: IGROV1 ovarian
[29] = test system: DLD-1 colon
[30] = test system: HCT-15 colon
[31] = test system: M19-MEL melanoma
[32] = test system: HOP-92 NSCLC
[33] = test system: HL-60(TB) leukemia
[34] = test system: RPMI-8226 leukemia
[35] = test system: SN12C renal
[36] = test system: EKVX NSCLC
[37] = test system: UACC-62 melanoma
[38] = test system: KM20L2 colon
[39] = test system: XF 498 CNS
[40] = test system: SF-539 CNS
[41] = test system: HCC-2998 colon
[42] = test system: UO-31 renal
[43] = test system: A498 renal
[44] = test system: SF-268 CNS
[45] = test system: DMS 273 small cell lung
[46] = test system: RXF-631 renal
[47] = test system: OVCAR-4 ovarian
[48] = test system: M14 melanoma
[49] = test system: DMS 114 small cell lung
[50] = test system: MOLT-4 leukemia
[51] = test system: NCI-H522 lung
[52] = test system: SK-MEL-5 melanoma
[53] = test system: NCI-H460 lung
[54] = test system: SNB-75 CNS
[55] = test system: UACC-257 melanoma
[56] = test system: HOP-18 NSCLC
[57] = test system: LXFL 529 NSCLC
[58] = test system: SR leukemia
[59] = test system: COLO 205 colon

Structure (SMILES): C[n+]1c2ccccc2c(/C=N\NS(=O)(=O)c2ccc(O)c(C(=O)O)c2)c2ccccc21
- TGI [1]: > 100 µM
- TGI [2]: > 100 µM
- TGI [3]: > 100 µM
- TGI [4]: > 100 µM
- TGI [5]: > 100 µM
- TGI [6]: > 100 µM
- TGI [7]: > 100 µM
- TGI [8]: > 100 µM
- TGI [9]: > 100 µM
- TGI [10]: > 100 µM
- TGI [11]: > 100 µM
- TGI [12]: > 100 µM
- TGI [13]: > 100 µM
- TGI [14]: > 100 µM
- TGI [15]: > 100 µM
- TGI [16]: > 100 µM
- TGI [17]: > 100 µM
- TGI [18]: > 100 µM
- TGI [19]: > 100 µM
- TGI [20]: > 100 µM
- TGI [21]: > 100 µM
- TGI [22]: > 100 µM
- TGI [23]: > 100 µM
- TGI [24]: > 100 µM
- TGI [25]: > 100 µM
- TGI [26]: > 100 µM
- TGI [27]: > 100 µM
- TGI [28]: > 100 µM
- TGI [29]: > 100 µM
- TGI [30]: > 100 µM
- TGI [31]: > 100 µM
- TGI [32]: > 100 µM
- TGI [33]: 84.2 µM
- TGI [34]: > 100 µM
- TGI [35]: > 100 µM
- TGI [36]: > 100 µM
- TGI [37]: > 100 µM
- TGI [38]: > 100 µM
- TGI [39]: 83.8 µM
- TGI [40]: > 100 µM
- TGI [41]: > 100 µM
- TGI [42]: > 100 µM
- TGI [43]: > 100 µM
- TGI [44]: > 100 µM
- TGI [45]: > 100 µM
- TGI [46]: > 100 µM
- TGI [47]: > 100 µM
- TGI [48]: > 100 µM
- TGI [49]: > 100 µM
- TGI [50]: 62 µM
- TGI [51]: > 100 µM
- TGI [52]: > 100 µM
- TGI [53]: > 100 µM
- TGI [54]: > 100 µM

Structure (SMILES): Brc1ccc(N=c2nc3ccccn3n3nc(-c4ccccc4)cc23)cc1
- TGI [1]: > 100 µM
- TGI [3]: > 100 µM
- TGI [4]: > 100 µM
- TGI [5]: > 100 µM
- TGI [6]: > 100 µM
- TGI [7]: > 100 µM
- TGI [8]: 51.1 µM
- TGI [55]: > 100 µM
- TGI [9]: 26.7 µM
- TGI [10]: > 100 µM
- TGI [11]: > 100 µM
- TGI [12]: > 100 µM
- TGI [13]: 65.2 µM
- TGI [14]: 95.1 µM
- TGI [15]: > 100 µM
- TGI [56]: > 100 µM
- TGI [16]: > 100 µM
- TGI [17]: 95.4 µM
- TGI [18]: 59.9 µM
- TGI [57]: > 100 µM
- TGI [19]: > 100 µM
- TGI [20]: > 100 µM
- TGI [21]: 72.1 µM
- TGI [22]: > 100 µM
- TGI [23]: > 100 µM
- TGI [24]: > 100 µM
- TGI [26]: 32.8 µM
- TGI [28]: > 100 µM
- TGI [29]: 47.7 µM
- TGI [30]: > 100 µM
- TGI [31]: > 100 µM
- TGI [32]: 87.2 µM
- TGI [58]: > 100 µM
- TGI [33]: > 100 µM
- TGI [59]: > 100 µM
- TGI [34]: > 100 µM
- TGI [35]: > 100 µM
- TGI [36]: > 100 µM
- TGI [37]: 63.3 µM
- TGI [38]: > 100 µM
- TGI [39]: 77 µM
- TGI [40]: > 100 µM
- TGI [42]: > 100 µM
- TGI [44]: > 100 µM
- TGI [46]: > 100 µM
- TGI [47]: 20.7 µM
- TGI [48]: 33 µM
- TGI [49]: > 100 µM
- TGI [50]: > 100 µM
- TGI [51]: 88.2 µM
- TGI [52]: > 100 µM
- TGI [53]: > 100 µM
- TGI [54]: > 100 µM
